Legend:
maize immature embryos [1] = experiment: Maize transformation, bialaphos/PAT selection with differing sucrose levels in selection media; type: cell-based, Zea mays (corn)
Protocol: (§1) Transformation of immature maize embryos is performed essentially as described in Negrotto et al., (2000) Plant Cell Reports 19: 798-803. Various media constituents described therein can be substituted. For example, the selectable marker gene and the selection agent can be modified, as in the examples below.
(§2) The genes used for transformation are cloned into a vector suitable for maize transformation as described above. Vectors used contain the either the PAT gene or the EPSPS gene as a selectable marker. PAT confers resistance to bialaphose, and EPSPS confers resistance to glyphosate.
(§3) Preparation of Agrobacterium tumefaciens: Agrobacterium strain LBA4404 (pSB1) containing the plant transformation plasmid is grown on YPC (yeast extract (5 g/L), peptone (10 g/L), NaCl (5 g/L), CaCl2.2H2O (1 g/L), 15 g/l agar, pH 6.8) solid medium for 2 to 4 days at 28° C. Approximately 0.8×10^9 Agrobacteria are suspended in inoculation medium supplemented with 100 μM acetosyringone (As) Bacteria are pre-induced in this medium for about 20 to 240 minutes.
(§4) Inoculation: Immature embryos from are excised from 8-12 day old ears after pollination. The isolated mixture of endosperms with immature embryos are suspended in the inoculation medium and poured through a 1500 um sieve after shaking. The immature embryos are captured on a 380 um sieve after pouring the suspension through. Immature embryos are gently removed from the sieve and suspended in Agrobacterium suspension on co-cultivation medium using a sterile scalpel blade after 5 min 45° C. heat shock. The immature embryo suspension is spread evenly on the co-cultivation medium and the excess Agrobacterium suspension is removed using a sterile transfer pipette and filter papers. The immature embryos are then spaced and flipped with round scutellum side up and then cultured in the dark for two to three days. Subsequently, between 20 and 45 embryos per petri plate are transferred to the medium AW5Dicamba100Ti and cultured in the dark for 28° C. for 10-14 days for callus induction.
Following co-cultivation and callus induction, the transformed calli are step-wise selected on MS medium or MS medium containing alternating concentrations of sucrose (5, 10 and 20, g/l) and bialaphos (5 and 7.5 mg/l) as indicated in Table 1. The controls comprise calli selected on MS medium supplemented with 20 g/l sucrose and 5 or 7.5 mg/l bialaphos for 4 to 6 weeks at 2 to 3 week intervals.
In a first selection period referred to in Table 1 as 51, about 10-20 calli are transferred from callus induction medium comprising 30 g/L sucrose onto 51 medium MS medium contained 5 g/l sucrose and 7.5 mg/l bialaphos and cultured for approximately 2 weeks at 28° C. in the dark. Each callus was originated from an immature embryo. For the second selection period, referred to in Table 1 as S2, about 9 to 10 calli of 51 are transferred to each plate containing S2 medium comprising 10 g/l sucrose and 7.5 mg/l bialaphose and then cultured for approximately 2 weeks at 28° C. in dark. For the third selection period referred to as S3, 9 to 10 calli are transferred from each S2 plate to S3 medium contained 20 g/l sucrose and 5 mg/l bialaphos and cultured for approximately 2 weeks at 28° C. in dark.
In another embodiment of the invention, in the first selection period S1 about 10 to 20 calli from each plate were transferred from callus induction medium comprising 30 g/L sucrose onto S1 medium containing 10 g/L of sucrose and 7.5 mg/l bialaphos and cultured for approximately 3 weeks at 28° C. in the dark. Each callus was originated from an immature embryo. 9 to 10 calli per plate were transferred from the S1 medium to S3 medium containing 20 g/L of sucrose and cultured for 2 weeks at 28° C. in dark. […]

maize immature embryos [2] = experiment: Maize transformation, glyphosate/EPSPS selection with differing sucrose levels in selection media; type: cell-based, Zea mays (corn); details: glyphosate selection
Protocol: as §1, §2, §3, §4
Following co-cultivation and callus induction, the transformed calli are step-wisely selected on MS medium or MS medium contained differing concentrations of sucrose (5, 10 and 20, g/l) and glyphosate (2 mg/l) as indicated in Table 2.
In one embodiment of the present invention, in an incubation selection period referred to in Table 2 as S1, 10-20 calli from callus induction medium were transferred onto selection medium S1 and cultured for approximately 2 weeks at 28° C. in the dark. Each callus is originated from an immature embryo.
For the selection period referred to as S2, about 9 to 10 calli cultured in selection step S1 were transferred to each plate containing selection medium S2 and then cultured for approximately 2 weeks at 28° C. in dark.
For the selection period referred to as S3, about 9 to 10 calli cultured in selection period S2 were transferred to selection medium of selection period S3 containing 20 g/l sucrose and 2 mM glyphosate. and cultured for approximately 2 weeks at 28° C. in the dark.
In another embodiment and referring to Table 2, about 10 to 20 calli per plate from callus induction medium were transferred onto selection medium of selection period S1. and cultured for approximately 2-3 weeks at 28° C. in the dark. Each callus was originated from an immature embryo. About 9 to 10 calli per plates were transferred to selection medium of selection period S2. and cultured for approximately 2 weeks at 28° C. in the dark.
Regeneration of Transformed Plants: Glyphosate-resistant embryogenic callus were selected under dissecting microscope and 4 embryogenic calli per plate were transferred to regeneration medium. and cultured for approximately 2 weeks at 28° C. in the dark. The cultures were subsequently transferred to a light room for 14 days at 25° C. with a 16 hour photoperiod. […]

sugarcane callus = experiment: Sugarcane transformation, glyphosate/EPSPS selection with differing sucrose levels in selection media; type: cell-based, sugarcane (Saccharum)
Protocol: The method of the present invention includes embryogenic responses initiated and/or cultures established from sugar cane young leave rolls by culturing on callus induction medium. Established embryogenic cultures were weighted, and then inoculated and co-cultivated with the Agrobacterium tumefaciens strain EHA101 (Agrobacterium) containing the desired vector construction. Agrobacterium was cultured from glycerol stocks on solid YPC medium (100 mg/L spectinomycin and any other appropriate antibiotic) for about two days at 28° C. Agrobacterium is re-suspended in liquid MS-D2 medium. The Agrobacterium culture was diluted to an OD600 of 0.3-0.4 and acetosyringone is added to a final concentration of 400 uM. Acetosyringone was added before mixing the solution with the sugar cane cultures to induce Agrobacterium for DNA transfer to the plant cells. For inoculation, the cultures were immersed in the bacterial suspension. The liquid bacterial suspension is removed and the inoculated cultures were placed on empty plate for co-cultivation and incubated at 22° C. for two days. The cultures were then transferred to callus induction medium with Ticarcillin (400 mg/liter) to inhibit the growth of Agrobacterium and cultured for 4-10 days at 28° C. in dark. Referring to Table 3 below, for constructs utilizing the EPSPS selectable marker gene, cultures are transferred to selection S1 medium containing glyphosate as the selection agent and 400 mg/liter Ticarcillin and cultured for 3-4 weeks in the dark. For different treatments, the concentration of sucrose varied from 0 to 30 g/l and glyphosate level varied from 0.1 to 5 mM. […] Resistant colonies were then transferred to regeneration medium, and grown in the dark for 7 days, and then moved to the light growth room for 14 days. Regenerated shoots were transferred Rooting media for 3-4 weeks and then moved to the greenhouse when they are large enough and have adequate roots. Plants are transplanted to soil in the greenhouse (To generation), and grown to maturity.

[3] = control, 20 g/L sucrose, bialaphos selection

OC[C@H]1O[C@@](CO)(O[C@H]2O[C@H](CO)[C@@H](O)[C@H](O)[C@H]2O)[C@@H](O)[C@@H]1O [sucrose]
regeneration frequency (maize immature embryos [1]; 5 and 10 g/L sucrose in S1 bialaphos selection): more than 65%
transformation frequency increase compared to the control (maize immature embryos [1]; 5 g/L sucrose in S1 bialaphos selection vs 20 g/L control): 3.1 fold
transformation frequency (maize immature embryos [1]; 5 g/L sucrose in bialaphos selection media, first round of selection (S1)): 23.5%
escape rate (maize immature embryos [1]; 5 g/L sucrose, bialaphos selection): 2.4%
transformation frequency increase compared to the control (maize immature embryos [1]; 10 g/L sucrose in S1 bialaphos selection vs 20 g/L control): 2.2 fold
transformation frequency (maize immature embryos [1]; 10 g/L sucrose in bialaphos selection media, first round of selection (S1)): 16.9%
escape rate (maize immature embryos [1]; [3]): 11.8%
regeneration frequency (maize immature embryos [1]; [3]): 37.4%
transformation frequency (maize immature embryos [1]; [3]): 7.6%
regeneration frequency (maize immature embryos [2]; sucrose 5 g/L in S2 followed by 20 g/L in S3): 87.4%
frequency of independent stable transgenic events (transformation frequency) (maize immature embryos [2]; sucrose 5 g/L in second round (S2) followed by 20 g/L in third round (S3)): 29.5%
regeneration frequency (maize immature embryos [2]; sucrose 10 g/L in S2 followed by 20 g/L in S3): 86.4%
frequency of independent stable transgenic events (maize immature embryos [2]; sucrose 10 g/L in second round (S2) followed by 20 g/L in third round (S3)): 18.3%
frequency of independent stable transgenic events (maize immature embryos [2]; negative control, standard sucrose concentration 20 g/L): 4.8%
regeneration frequency (maize immature embryos [2]; negative control, sucrose 20 g/L): 7.9%
transformation frequency (sugarcane callus; altering sucrose level and adjusting glyphosate concentration in step-wise selection): > 7 % per gram fresh tissue
recovery of transgenic plants (sugarcane callus; standard control, MS medium with 30 g/l sucrose and 3 mM glyphosate): no transgenic plants were recovered
transformation frequency (sugarcane callus; sucrose concentration reduced to 5 g/l in selection medium): 2.4 % per gram of fresh tissues
transformation frequency (sugarcane callus; sucrose concentration reduced to 10 and 15 g/l): improved

Source: US20150113681A1, “COMPOSITION AND METHOD FOR ENHANCING PLANT TRANSFORMATION” (SYNGENTA PARTICIPATIONS AG, priority 2013, published 2015)
